Experimental data from US20230293535A1, “ERBB/BTK INHIBITORS” (Dizal (Jiangsu) Pharmaceutical Co., Ltd., priority 2018, published 2023).

How the values were obtained:
BTK [1] = biological target: T1, BTK (Homo sapiens, UniProt Q06187); experiment: BTK target site occupancy ELISA (PBMC); assay type: cell-based; details: BTK receptor occupancy
Method: (§1) An enzyme-linked immunosorbent assay (ELISA) method for the detection of free uninhibited Btk in mouse and human lysates. Human or mouse whole blood were incubated with compound for 2 hour at 37° C. Whole blood were lysed in ice-cold lysis buffer containing 50 mM Tris-HCl, pH 7.5, 150 mM NaCl, 1 mM EDTA,1% Triton X-100. […] Samples were transferred to a streptavidin-coated 96-well ELISA plate and mixed while shaking for 1 hour at room temperature. The α-Btk antibody (1:500; clone number D3H5, Cell signaling Technology, Danvers, MA, USA) was then added to the well and incubated for 1 hour at room temperature. After wash, goat α-rabbit-FW (1:5000 dilution in PBS+ 0.05% Tween-20 + 1% BSA) was added to each well and incubated for 1 h at room temperature. The ELISA was developed with addition of tetramethyl benzidine (TMB) followed by Stop Solution and read at OD 450 nm.

[2] = biological target: T2, human Her2 exon 20 insertion mutation YVMA (Homo sapiens, UniProt P04626, INS775YVMA); experiment: Her2 Exon 20 YVMA insertion cellular phosphorylation inhibition (MSD p-Her2 Y1248/total Her2); assay type: cell-based; details: Her2 YVMAins cells, 4 h compound;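 also: lentivirally transduced NIH-3T3 cells in 1% FBS medium, electrochemiluminescent MSD read-out, graded compound concentrations at 37 °C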
T2 construct: expressed in transfected cells; host or cells: NIH-3T3, lentiviral transduction, puromycin selection
T2 sequence (P04626 with tags, fused parts or gaps INS775YVMA): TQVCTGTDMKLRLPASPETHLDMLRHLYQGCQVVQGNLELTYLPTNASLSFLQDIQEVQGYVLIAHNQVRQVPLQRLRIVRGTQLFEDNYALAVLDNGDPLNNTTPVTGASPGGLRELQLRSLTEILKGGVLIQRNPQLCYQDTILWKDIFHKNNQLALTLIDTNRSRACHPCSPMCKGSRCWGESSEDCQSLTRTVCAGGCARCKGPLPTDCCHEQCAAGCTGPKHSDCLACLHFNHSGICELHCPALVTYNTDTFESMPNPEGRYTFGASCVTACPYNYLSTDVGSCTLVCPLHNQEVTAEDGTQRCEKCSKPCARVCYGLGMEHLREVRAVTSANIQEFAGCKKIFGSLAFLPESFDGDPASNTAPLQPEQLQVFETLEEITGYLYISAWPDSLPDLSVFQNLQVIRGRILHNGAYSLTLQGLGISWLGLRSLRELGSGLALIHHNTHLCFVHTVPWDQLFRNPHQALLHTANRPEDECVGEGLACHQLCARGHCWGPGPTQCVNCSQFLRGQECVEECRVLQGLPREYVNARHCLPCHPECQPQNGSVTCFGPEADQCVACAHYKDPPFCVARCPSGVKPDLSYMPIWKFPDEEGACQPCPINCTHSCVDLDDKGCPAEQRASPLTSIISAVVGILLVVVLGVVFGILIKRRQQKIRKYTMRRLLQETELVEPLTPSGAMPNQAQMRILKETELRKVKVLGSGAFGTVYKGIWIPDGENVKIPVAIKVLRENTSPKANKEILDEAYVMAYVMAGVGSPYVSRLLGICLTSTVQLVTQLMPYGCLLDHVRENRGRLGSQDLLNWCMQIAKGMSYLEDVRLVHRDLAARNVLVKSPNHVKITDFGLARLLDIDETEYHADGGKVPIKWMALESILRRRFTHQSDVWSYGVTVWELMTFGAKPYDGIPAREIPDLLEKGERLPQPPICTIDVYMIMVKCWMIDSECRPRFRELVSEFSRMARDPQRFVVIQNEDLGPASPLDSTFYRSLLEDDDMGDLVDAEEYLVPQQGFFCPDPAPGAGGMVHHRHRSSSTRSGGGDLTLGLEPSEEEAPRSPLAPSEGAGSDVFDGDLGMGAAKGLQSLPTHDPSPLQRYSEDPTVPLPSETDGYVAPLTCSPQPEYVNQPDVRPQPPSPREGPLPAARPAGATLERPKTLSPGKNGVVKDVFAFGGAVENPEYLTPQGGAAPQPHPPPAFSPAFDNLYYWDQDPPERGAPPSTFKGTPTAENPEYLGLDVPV

WT EGFR = biological target: T3, WT EGFR (Homo sapiens, UniProt P00533); experiment: WT EGFR cellular phosphorylation inhibition in A-431 (hEGF stimulated, MSD); assay type: cell-based; details: A431 cells, 4 h compound, then 100 ng/ml hEGF 10 min;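 also: electrochemiluminescence read-out of EGFR Tyr1068 phosphorylation expressed as ratio to total EGFR, cells kept in medium with 1% FBS, compounds tested as a concentration series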
T3 construct: host or cells: A-431
T3 sequence (P00533 25-1210): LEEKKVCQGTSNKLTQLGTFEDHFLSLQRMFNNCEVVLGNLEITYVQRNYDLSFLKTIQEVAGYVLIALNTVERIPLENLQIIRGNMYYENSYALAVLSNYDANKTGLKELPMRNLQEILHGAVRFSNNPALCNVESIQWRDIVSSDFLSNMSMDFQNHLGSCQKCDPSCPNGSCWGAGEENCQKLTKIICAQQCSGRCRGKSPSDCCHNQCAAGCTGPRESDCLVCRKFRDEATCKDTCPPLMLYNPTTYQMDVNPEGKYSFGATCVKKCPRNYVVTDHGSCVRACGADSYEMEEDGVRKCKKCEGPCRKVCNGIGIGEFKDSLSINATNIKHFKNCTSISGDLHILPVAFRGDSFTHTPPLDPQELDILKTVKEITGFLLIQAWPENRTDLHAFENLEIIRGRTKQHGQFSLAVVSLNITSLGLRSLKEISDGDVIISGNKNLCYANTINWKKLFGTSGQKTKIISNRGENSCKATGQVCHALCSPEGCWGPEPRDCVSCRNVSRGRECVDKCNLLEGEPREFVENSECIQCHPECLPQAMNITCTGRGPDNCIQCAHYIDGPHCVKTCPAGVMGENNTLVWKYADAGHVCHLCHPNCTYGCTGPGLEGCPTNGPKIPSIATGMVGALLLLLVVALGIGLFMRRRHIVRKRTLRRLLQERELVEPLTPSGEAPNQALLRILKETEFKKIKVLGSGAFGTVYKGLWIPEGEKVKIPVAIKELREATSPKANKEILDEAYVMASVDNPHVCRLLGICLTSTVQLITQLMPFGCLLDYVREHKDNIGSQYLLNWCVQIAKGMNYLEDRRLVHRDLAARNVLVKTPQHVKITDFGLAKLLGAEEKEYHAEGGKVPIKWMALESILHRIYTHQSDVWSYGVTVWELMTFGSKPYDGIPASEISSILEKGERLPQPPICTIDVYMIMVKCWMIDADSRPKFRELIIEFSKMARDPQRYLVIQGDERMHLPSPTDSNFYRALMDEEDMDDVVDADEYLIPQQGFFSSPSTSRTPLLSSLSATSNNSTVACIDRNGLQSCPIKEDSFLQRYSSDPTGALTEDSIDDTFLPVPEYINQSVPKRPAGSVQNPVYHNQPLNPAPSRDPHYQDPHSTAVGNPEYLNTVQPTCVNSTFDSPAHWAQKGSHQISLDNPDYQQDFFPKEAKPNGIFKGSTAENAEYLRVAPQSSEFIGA

WT EGFR cell line A-431 = experiment: Cell proliferation, WT EGFR A431 (CellTiter-Glo, 72 h); assay type: cell-based; details: Homo sapiens, A-431, 72 h, A431, 72 h proliferation; read-out: EGFR WT A431 GI50;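 also: proliferation from a luminescent ATP viability signal, expressed as 100 × (treated minus time-zero plate) over (DMSO control minus time-zero plate), cells grown with 10% FBS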
Ri-1 cells = experiment: BTK (wt) cell proliferation, Ri-1 (CellTiter-Glo, 72 h); assay type: cell-based; details: Ri-1, 72 h, Ri-1 cells, 72 h, CellTiter-Glo; read-out: BTK WT Ri-1 GI50;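 also: viable cells quantified as cellular ATP luminescence, proliferation normalized to a time-zero plate and the DMSO control, compounds tested across a dilution series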
Ba/F3 EGFR NPH ins cells = experiment: Cell proliferation, Ba/F3 EGFR NPH ins (CellTiter-Glo, 72 h); assay type: cell-based; details: Ba/F3 EGFR, 72 h, Ba/F3 EGFR NPH ins, 72 h proliferation; read-out: EGFR Exon20 NPH insertion GI50;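 also: IL3-independent cells carrying constitutively phosphorylated EGFR, compound dilution series, viable cells quantified by ATP luminescence, growth relative to DMSO wells after subtracting pre-dosing (day 0) baseline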
[3] = biological target: T4, human EGFR exon 20 H773_V774insNPH (Homo sapiens, UniProt P00533, INS773NPH); experiment: EGFR Exon20 NPH insertion cellular phosphorylation inhibition (MSD pEGFR Y1068/total EGFR); assay type: cell-based; details: Ba/F3 EGFR NPH ins cells, 4 h compound, p-EGFR(Y1068)/total EGFR;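 also: IL3-independent Ba/F3 cells with constitutively phosphorylated EGFR, compound exposure at 37 °C under 5% CO2, electrochemiluminescent MSD measurement of the p-EGFR to total EGFR ratio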
T4 construct: host or cells: Ba/F3
T4 sequence (P00533 with tags, fused parts or gaps INS773NPH): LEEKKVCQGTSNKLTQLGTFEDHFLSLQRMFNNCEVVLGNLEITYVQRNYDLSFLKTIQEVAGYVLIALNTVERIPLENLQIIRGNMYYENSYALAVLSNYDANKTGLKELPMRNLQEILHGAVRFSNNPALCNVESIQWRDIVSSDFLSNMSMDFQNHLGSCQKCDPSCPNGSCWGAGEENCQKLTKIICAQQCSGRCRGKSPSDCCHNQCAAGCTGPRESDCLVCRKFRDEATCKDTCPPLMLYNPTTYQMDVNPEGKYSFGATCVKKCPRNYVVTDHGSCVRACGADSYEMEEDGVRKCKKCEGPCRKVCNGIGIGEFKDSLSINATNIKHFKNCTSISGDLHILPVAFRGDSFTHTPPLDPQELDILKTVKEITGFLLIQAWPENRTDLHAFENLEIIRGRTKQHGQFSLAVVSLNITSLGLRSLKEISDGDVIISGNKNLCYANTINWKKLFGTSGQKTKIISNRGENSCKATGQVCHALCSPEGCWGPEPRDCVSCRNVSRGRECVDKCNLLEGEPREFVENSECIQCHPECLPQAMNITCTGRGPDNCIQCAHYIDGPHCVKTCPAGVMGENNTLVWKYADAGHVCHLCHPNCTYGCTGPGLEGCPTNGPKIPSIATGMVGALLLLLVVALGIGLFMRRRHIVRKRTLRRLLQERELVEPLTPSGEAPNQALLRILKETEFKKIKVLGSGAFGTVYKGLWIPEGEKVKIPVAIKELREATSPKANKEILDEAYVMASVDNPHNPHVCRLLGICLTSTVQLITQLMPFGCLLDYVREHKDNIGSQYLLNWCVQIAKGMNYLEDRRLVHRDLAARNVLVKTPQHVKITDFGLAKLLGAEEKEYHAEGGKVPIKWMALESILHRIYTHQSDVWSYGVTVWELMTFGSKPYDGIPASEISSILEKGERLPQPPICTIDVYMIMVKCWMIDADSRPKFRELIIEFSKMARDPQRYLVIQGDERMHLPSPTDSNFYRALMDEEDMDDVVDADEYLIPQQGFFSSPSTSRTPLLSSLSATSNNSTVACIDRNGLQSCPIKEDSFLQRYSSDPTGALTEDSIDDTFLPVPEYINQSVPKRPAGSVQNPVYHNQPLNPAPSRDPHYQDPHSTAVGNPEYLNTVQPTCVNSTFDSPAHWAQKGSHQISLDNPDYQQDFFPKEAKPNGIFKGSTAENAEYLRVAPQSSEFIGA
Method: One day before the test, WT or mutant cells were seeded in 96 well plates at appropriate concentrations with corresponding growth media supplemented with 1% FBS, and incubated overnight. The next day, tested compounds at a series of concentrations were added into each individual well of the plates, and the plates were incubated for 4 h at 37° C. with 5% CO2.
The EGFR (Y1068) phosphorylation level (activity) of cells in each well were then measured with MSD kit named “MULTI-SPOT®96 4-Spot HB Prototype EGFR Triplex [sequence]: pEGFR(Tyr1068),pEGFR(Tyr1173), Total EGFR” according to the manufacturer’s instruction (MESO SCALE DISCOVERY, Cat# N45ZB-1). The assay is an electrochemiluminescent method for determining both phosphorylated and total EGFR of cells with an MSD SECTOR® Imager and the ratio of p-EGFR/total EGFR can be generated by the machine.

Phospho-BTK (Tyr223) = biological target: T5, Phospho-BTK (Tyr223) (Homo sapiens, UniProt Q06187); experiment: p-BTK assay in Ramos cells (HTRF Phospho-BTK Tyr223); assay type: cell-based; details: pervanadate stimulated, read-out: p-BTK (Romas) IC50
T5 construct: endogenous in cells; host or cells: Ramos
T5 sequence (Q06187 whole entry): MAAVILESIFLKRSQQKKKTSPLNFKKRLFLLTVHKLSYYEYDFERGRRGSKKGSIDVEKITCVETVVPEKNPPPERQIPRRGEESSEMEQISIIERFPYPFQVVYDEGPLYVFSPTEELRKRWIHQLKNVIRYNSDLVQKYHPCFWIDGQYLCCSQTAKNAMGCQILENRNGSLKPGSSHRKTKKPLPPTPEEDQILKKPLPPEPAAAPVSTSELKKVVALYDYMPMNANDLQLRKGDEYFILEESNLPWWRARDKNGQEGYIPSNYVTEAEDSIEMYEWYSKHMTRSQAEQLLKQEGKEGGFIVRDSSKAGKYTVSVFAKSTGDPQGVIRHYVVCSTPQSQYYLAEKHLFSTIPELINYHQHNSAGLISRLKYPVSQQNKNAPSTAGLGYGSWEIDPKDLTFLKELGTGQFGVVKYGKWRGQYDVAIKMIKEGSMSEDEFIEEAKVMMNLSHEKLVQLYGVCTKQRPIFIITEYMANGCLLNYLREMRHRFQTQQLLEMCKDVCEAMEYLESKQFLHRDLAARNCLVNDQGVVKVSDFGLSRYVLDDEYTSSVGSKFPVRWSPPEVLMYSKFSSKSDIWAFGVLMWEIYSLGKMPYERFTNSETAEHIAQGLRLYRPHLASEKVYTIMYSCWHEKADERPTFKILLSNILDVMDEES
Method: The assay plates were then incubated for 30 minutes at 37° C., 5% CO2. 300 uM Per vanadate (3X) was added to each well and the assay plates were again incubated for 60 minutes at 37° C., 5% CO2. Phospho-BTK (Tyr223) is detected using the HTRF® reagents (Cisbio) according to the manufacturer’s one-plate assay protocol.

BTK [4] = biological target: T1, BTK; experiment: BTK target site occupancy ELISA (Ramos); assay type: cell-based; set-up: endogenous in cells; host or cells: Ramos; details: BTK receptor occupancy, read-out: Occupancy (Romas) IC50
Method: as §1

DB cells = experiment: BTK (wt) cell proliferation, DB (CellTiter-Glo, 72 h); assay type: cell-based; details: Homo sapiens, DB, DB cells, CellTiter-Glo, read-out: Non-BCR activated DB GI50;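 also: DB cells in 384-well plates given a dilution series of compound, viable cells read by ATP luminescence, growth expressed versus DMSO control after subtracting a time-zero plate reading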
OCI-LY-10 cells = experiment: BTK (wt) cell proliferation, OCI-LY-10 (CellTiter-Glo, 72 h); assay type: cell-based; details: Homo sapiens, OCI-Ly10, 72 h, OCI-LY-10 cells, 72 h, CellTiter-Glo; read-out: BTK WT OCI-LY-10 GI50;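 also: viable cells quantified via cellular ATP luminescence, proliferation given as percent of DMSO control after subtracting a duplicate plate read at time of dosing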
Ba/F3 EGFR ASV ins cells = experiment: Cell proliferation, Ba/F3 EGFR ASV ins (CellTiter-Glo, 72 h); assay type: cell-based; details: Ba/F3 EGFR, 72 h, Ba/F3 EGFR ASV ins, 72 h proliferation; read-out: EGFR Exon20 ASV insertion GI50;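 also: IL3-independent Ba/F3 cells transduced with EGFR V769_D770insASV, cellular ATP luminescence after compound exposure, growth relative to DMSO control with the day-0 baseline reading subtracted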
TMD-8 cells = experiment: BTK (wt) cell proliferation, TMD-8 (CellTiter-Glo, 72 h); assay type: cell-based; details: Homo sapiens, TMD8, 72 h, TMD-8 cells, 72 h, CellTiter-Glo; read-out: BTK WT TMD-8 GI50;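 also: viable cells quantified by ATP-based luminescence, proliferation expressed as percent of DMSO control after subtracting a time-zero baseline plate read at dosing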
EGFR L858R&T790M = biological target: T6, EGFR L858R&T790M (Homo sapiens, UniProt P00533, L858R/T790M); experiment: EGFR L858R and T790M cellular phosphorylation inhibition in NCI-H1975 (MSD); assay type: cell-based; details: NCI-H1975 cells, 4 h compound, p-EGFR(Y1068)/total EGFR; read-out: EGFR L858R and T790M mutation IC50;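 also: phosphorylated and total EGFR detected by electrochemiluminescence, cells exposed to compound in medium containing 1% FBS at 37 °C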
T6 construct: host or cells: NCI-H1975

[5] = system: NCI-H1975 EGFR L858R/T790M cells; experiment: Cell proliferation, NCI-H1975 EGFR L858R/T790M (CellTiter-Glo, 72 h); assay type: cell-based; details: Homo sapiens, NCI-H1975, 72 h, NCI-H1975, 72 h proliferation; read-out: EGFR L858R and T790M mutation GI50;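 also: viable cells quantified by luciferase-based ATP luminescence, proliferation expressed relative to DMSO-treated wells (100%) after subtracting a parallel plate read at the time of dosing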
[6] = biological target: T7, human EGFR exon 20 V769_D770insASV (Homo sapiens, UniProt P00533, INS769ASV); experiment: EGFR Exon20 ASV insertion cellular phosphorylation inhibition (MSD pEGFR Y1068/total EGFR); assay type: cell-based; details: Ba/F3 EGFR ASV ins cells, 4 h compound, p-EGFR(Y1068)/total EGFR;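 also: electrochemiluminescent readout on an MSD SECTOR Imager, IL3-independent transduced cells in medium with 1% FBS, compound concentration series at 37 °C and 5% CO2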
T7 construct: expressed in transfected cells; host or cells: Ba/F3 (DSMZ ACC-300), lentiviral transduction, puromycin selection, IL3 depletion

[7] = system: Her2 exon 20 insertion YVMA transduced NIH-3T3 cell line; experiment: Cell proliferation, Her2 YVMAins NIH-3T3 (CellTiter-Glo, 72 h); assay type: cell-based; details: Mus musculus, NIH3T3, 72 h, Her2 YVMAins cells, 72 h proliferation; read-out: Her2 Exon 20 YVMA insertion GI50;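 also: viable cells quantified by ATP luminescence, growth over a day-zero baseline plate expressed as percent of DMSO control growth, compound dilution series in 10% FBS medium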
[8] = In vitro human hepatocytes clearance assay; details: both, human, cryopreserved human hepatocytes (suspension), human hepatocytes Clint (µL/min/10^6cells), mixed gender human hepatocytes, incubation up to 100 min
Method: (§2) The protocol for rat/human hepatocytes metabolic stability assay is employed to determine the clearance of the compounds of the present disclosure in vitro.
(§3) Rat hepatocytes in male gender and human hepatocytes in mixed gender were obtained from commercial vendors (e.g., BioreclamationIVT) and stored at -150° C. prior to use. 10 mM stock solutions of tested compounds were prepared in DMSO. Thawing medium and supplement incubation medium (serum-free) were placed in a 37° C. water bath for at least 15 minutes prior to use. Stock solutions were diluted to 100 µM by combining 198 µL acetonitrile and 2 µL of 10 mM stock solution.
(§4) Vials of cryopreserved hepatocytes were removed from storage, ensured that vials remain at cryogenic temperatures. The vials were thawed in a 37° C. water bath with gently shaking. Vials were kept in water bath until all ice crystals had dissolved and were no longer visible. Vials were sprayed with 70% ethanol before being transferred to a biosafety cabinet. And then the contents were poured into the 50 mL thawing medium conical tube. Vials were centrifuged at 100 g for 10 minutes at room temperature.
(§5) Cell viability and density were counted using a Trypan Blue exclusion, and then cells were diluted with serum-free incubation medium to a working cell density of 1 × 10^6 viable cells/ml. […] The inactivated hepatocytes were used to prepare negative samples, which were used to exclude the misleading factor that resulted from instability of chemical itself.
(§6) Aliquots of 247.5 µL hepatocytes were dispensed into each well of a 96-well non-coated plate. The plate was placed in the incubator on an orbital shaker for approximately 10 minutes. Aliquots of 2.5 µL of the 100 µM test compounds were added into respective wells of the non-coated 96-well plate to start the reaction. This assay was performed in duplicate. The plate was incubated in the incubator on an orbital shaker for the designed time points. […] Samples were centrifuges for 20 minutes at 4000 g and aliquots of 100 µL of the supernatants were used for LC-MS/MS analysis for measurement of test compounds
(§7) In vitro hepatocyte clearance was estimated based on determination of elimination half-life (T½) of compounds disappearance from their initial concentrations. Peak area ratios of each compound (test or control) to IS was calculated. Ln (%Control) versus Incubation Time (min) curve was plotted, and the slope of a linear fitting line was calculated.

[9] = In vitro rat hepatocytes clearance assay; details: male, rat, cryopreserved rat hepatocytes (suspension), rat hepatocytes Clint (µL/min/10^6cells), 1 µM-range incubation up to 100 min
Method: as §2, §3, §4, §5, §6, §7

[10] = Rat pharmacokinetic study after oral administration (SOA); assay type: in vivo; details: male Han Wistar rats; for SOA DN AUCSYS (ng·h/mL)/(mg/kg): dose-normalised systemic AUC; for Cmax: rat, plasma, nominal 10 mg/kg (actual dose in c1)
Method: For rat pharmacokinetic studies, six male Han Wistar rats were purchased from Beijing Vital River and orally dosed with the test compound at 10 mg/kg in 0.5% Tween-80 and 0.5% hydroxypropyl methylcellulose (v/w). At, 0.5, 1, 2, 4, 7 and 16 hours post-dose, blood samples (>100 µL/time point) were collected from portal vein and via cardiac puncture into separate K2EDTA […] tubes, and then immediately centrifuged at 1500 g, 5 min at 4° C. to separate plasma. The plasma samples were deproteinized with 4 fold acetonitrile (including internal standard), vortex for 10 min and centrifuges for 10 minutes at 4000 g at 4° C.. The supernatantswere submitted to LC/MS/MS (API 5500, Applied Biosystems, Foster City) analysis. Two sets of standard curves were run at the beginning and end of each batch from plasma sample analysis.
Compound absorption was measured by portal vein AUC (AUCHPV) and systemic AUC (AUCSYS) observed maximum concentration (Cmax) in rats after oral administration. Dose is the actual dose used in SOA study. Find below in Table 9 data for exemplary tested compounds.

T1 sequence (Q06187 whole entry): as above

| IC50 (BTK [1]) [nM] | IC50 [2] [nM] | IC50 (WT EGFR) [nM] | GI50 (WT EGFR cell line A-431) [nM] | GI50 (Ba/F3 EGFR NPH ins cells) [nM] | IC50 [3] [nM] | IC50 (Phospho-BTK (Tyr223)) [nM] | GI50 (OCI-LY-10 cells) [nM] | GI50 (Ba/F3 EGFR ASV ins cells) [nM] | IC50 (EGFR L858R&T790M) [nM] | GI50 [5] [nM] | IC50 [6] [nM] | hepatocyte CLint at 1 µM [8] [µL/min/1e6 cells] | hepatocyte CLint at 1 µM [9] [µL/min/1e6 cells] | SOA DN AUCSYS (ng·h/mL)/(mg/kg) [10] | Cmax [10] [ng/mL] | Compound | GI50 (Ri-1 cells) [nM] | GI50 (DB cells) [nM] | GI50 (TMD-8 cells) [nM] | GI50 [7] [nM] | other results |
| --- | --- | --- | --- | --- | --- | --- | --- | --- | --- | --- | --- | --- | --- | --- | --- | --- | --- | --- | --- | --- | --- |
| 1.1 | 52.7 | 101 | 76.8 | 224 | 321 | 1.6 | 1.49 | 159 | 1.3 | 34.7 | 87.6 | – | – | – | – | C=CC(=O)Nc1cc(Nc2ncnc(Nc3cc(F)c(F)cc3C(C)(C)O)n2)c(OC)cc1N1CC(CN(C)C)C1 [Compound 23, N-(5-(4-(4,5-difluoro-2-(2-hydroxypropan-2-yl)phenylamino)-1,3,5-triazin-2-ylamino)-2-(3-((dimethylamino)methyl)azetidin-1-yl)-4-methoxyphenyl)acr ylamide] | 3.71 | > 3000 | 3.93 | 271 | IC50 (BTK [4]): 1.1 nM |
| – | 7.8 | 12.2 | 12.7 | 29.6 | 14 | – | 0.97 | 22.1 | 0.6 | 3.1 | 6.9 | 2.77 | 6.99 | 432 (ng·h/mL)/(mg/kg) | 370 | C=CC(=O)Nc1cc(Nc2ncnc(Nc3cc(Cl)c(F)cc3C(C)(C)O)n2)c(OC)cc1N1CC[C@@H](N(C)C)C1 [Compound 33, (R)-N-(5-(4-(5-chloro-4-fluoro-2-(2-hydroxypropan-2-yl)phenylamino)-1,3,5-triazin-2-ylamino)-2-(3-(dimethylamino)pyrrolidin-1-yl)-4-methoxyphenyl)acrylamide] | 2 | > 3000 | 2.5 | 71.1 | – |
| 1.7 | 9.3 | 18.9 | 19.7 | 59.4 | 19.6 | 1.3 | 0.7 | 46.2 | 0.9 | 3.9 | 8 | – | – | – | – | C=CC(=O)Nc1cc(Nc2ncnc(Nc3cc(Cl)c(F)cc3C(C)(C)O)n2)c(OC)cc1N1CC[C@@H]1CN(C)C [Compound 38, (R)-N-(5-(4-(5-chloro-4-fluoro-2-(2-hydroxypropan-2-yl)phenylamino)-1,3,5-triazin-2-ylamino)-2-(2-((dimethylamino)methyl)azetidin-1-yl)-4-methoxyphenyl)acrylamide] | 1.49 | > 3000 | 1.62 | 84.8 | IC50 (BTK [4]): 0.8 nM |
| 1.3 | 13.2 | 30.1 | 26.5 | 71.8 | 45.6 | 0.9 | 1.74 | 76.6 | 1.8 | 5.5 | 29.9 | – | – | – | – | C=CC(=O)Nc1cc(Nc2ncnc(Nc3cc(Cl)c(F)cc3C(C)(C)O)n2)c(OC)cc1N1CC(CN(C)C)C1 [Compound 39, N-(5-(4-(5-chloro-4-fluoro-2-(2-hydroxypropan-2-yl)phenylamino)-1,3,5-triazin-2-ylamino)-2-(3-((dimethylamino)methyl)azetidin-1-yl)-4-methoxyphenyl)acrylamide] | 1.47 | > 3000 | 1.69 | 69.9 | IC50 (BTK [4]): 1 nM |
| – | 18.8 | 356 | 124 | 167 | 29.5 | – | 8.1 | 176 | 1.3 | 13 | 43.2 | 7.36 | 24.1 | 50.1 (ng·h/mL)/(mg/kg) | 52.5 | C=CC(=O)Nc1cc(Nc2nccc(Nc3cc(Cl)c(F)cc3C(C)(C)O)n2)c(OC)cc1N1C[C@@H](F)[C@@H](N(C)C)C1 [Compound 79, N-(5-(4-(5-chloro-4-fluoro-2-(2-hydroxypropan-2-yl)phenylamino)pyrimidin-2-ylamino)-2-((3 S,4R)-3-(dimethylamino)-4-fluoropyrrolidin-1-yl)-4-methoxyphenyl)acrylamide] | 80.9 | > 3000 | 14.4 | 233 | – |
| – | 9.3 | 195 | 45.8 | 59.8 | 21.5 | – | 7.8 | 90.9 | 0.6 | 29.1 | 17.9 | 4.32 | 16.2 | 77.8 (ng·h/mL)/(mg/kg) | 76.5 | C=CC(=O)Nc1cc(Nc2nccc(Nc3cc(Cl)c(F)cc3C(C)(C)O)n2)c(OC)cc1N1CC[C@@H](CN(C)C)C1 [Compound 86, (S)-N-(5-(4-(5-chloro-4-fluoro-2-(2-hydroxypropan-2-yl)phenylamino)pyrimidin-2-ylamino)-2-(3-((dimethylamino)methyl)pyrrolidin-1-yl)-4-methoxyphenyl)acrylamide] | 18.6 | > 3000 | 11.4 | 249 | – |
| – | 15.1 | 51.6 | 21.5 | 105 | 33.1 | – | 0.92 | 83.2 | 1.6 | 7.3 | 19.4 | 5.01 | 11.5 | 249 (ng·h/mL)/(mg/kg) | 498 | C=CC(=O)Nc1cc(Nc2ncnc(Nc3cc(Cl)c(F)cc3C(C)(C)O)n2)c(OC)cc1N1C[C@@H](F)[C@@H](N(C)C)C1 [Compound 93, N-(5-(4-(5-chloro-4-fluoro-2-(2-hydroxypropan-2-yl)phenylamino)-1,3,5-triazin-2-ylamino)-2-((3 S,4R)-3-(dimethylamino)-4-fluoropyrrolidin-1-yl)-4-methoxyphenyl) acrylamide] | 3.2 | > 3000 | 3.1 | 166 | – |
